Results as given in paper PMC9101642 (Molecules, 2022).
Read-outs that look alike come from different tables or passages of the source. Marks after values point to notes of the source that are not given here.

Assays:
ERβ = ERβ (Homo sapiens, UniProt Q92731); assay: Fluorescence polarization competition assay: antagonistic potency and relative binding affinity; details: for logRBA ERβ: log of % relative binding affinity, estradiol = 100%
[1] = Plasma protein binding determination; type: in vitro ADME, rat; details: rat plasma, 37 °C, read-out: Rat PPB (%free)
Protocol: (§1) Rats were housed at 3 per cage and
(§2) The breast cancer was induced after the MNU (Sigma Aldrich CAS No. 684-93-5) administration. An aqueous solution at a concentration of 10 mg/ml was made by wetting the NMU powder with 3% acetic acid and then dissolving it in 0.9% NaCl solution; a fresh solution was prepared for each injection. Rats were given intraperitoneal (i.p.) 50 mg/kg of MNU on the 50th day of age. Animals were divided into different groups with six animals in each group. Group I (intact control) received 0.9% NaCl solution.
(§3) Groups II-IV and V-VII were introduced with MNU. Two weeks after MNU treatment, animals were treated orally with synthesized compounds and control substances (5 and 50 mg/kg, for groups II-IV and V-VII, respectively) by gavage once per day for six weeks. Animals in the intact control group and untreated MNU group were given vehicle (Tween 80) according to the experimental protocol. […]
(§4) Upon finishing the treatment with synthesized compounds, animals were sacrificed, and plasma, serum, and liver samples were collected. […]
Rat plasma containing either 5 or 50 mg/kg bwt of the tested compounds was incubated at 37°C upper reservoir of the washed Centri-free YM-30 ultrafiltration units (Millipore, Bedford, MA) and then centrifuged for 20 min at 2,000 g. Aliquots of the ultrafiltrates and unfiltered incubation mixtures were analyzed for the total protein concentration by the bicinchoninic acid assay for protein concentration (BCA assay; Pierce, Rockford, IL).

MCF-7 cell lines = assay: MTT antiproliferative assay; type: cell-based, human; details: read-out: MCF-7 (IC50 nM)
[2] = tested on: progesterone receptor (PR); assay: ERα functional antagonism cell assay (PR as biomarker) in MCF-7; type: cell-based; details: Homo sapiens, MCF7; progesterone receptor as biomarker for ERα antagonism in MCF-7
[3] = tested on: Ishikawa endometrial adenocarcinoma cells; assay: Antiproliferative assay; type: cell-based; details: Homo sapiens, growth inhibition
Source text: As SERMs profile is often associated with the stimulation of endometrial cell proliferation and an increase in the incidence of endometrial cancer (EC), the herein compounds were therefore evaluated against Ishikawa endometrial adenocarcinoma cells (Table 8, Supplementary Material Figures […]). […] However, future experimental elaboration, currently beyond the authors' experimental facilities, is required to confirm compounds' promising profiles in terms of no EC induction.

[4] = Serum biochemical markers after treatment of MNU-induced rats; type: in vivo, Wistar rats; set-up: TBC: unit not given here; details: for ALP (A/L) / ALT (A/L) / AST (U/L) / γ-GT (U/L): serum; for TBC: total bilirubin content
Protocol: as §1, §2, §3
Upon finishing the treatment with synthesized compounds, animals were sacrificed, and plasma, serum, and liver samples were collected.
Measurement of Serum Biochemical Markers
The activities of AST and ALT on 340 nm, and ALP on 405 nm, were determined by UV-Vis kinetic methods according to recommendations of the Expert Panel of the IFCC (International Federation of Clinical Chemistry). The colorimetric methods were used for the determination of total bilirubin (Jendrassik-Grof 550 nm method). All kinetic and colorimetric measurements were recorded using a Perkin-Elmer Lambda 25 UV/Vis spectrophotometer. […]

[5] = Lipophilicity by shake-flask method; details: pH 7.4
[6] = Liver oxidative stress markers after treatment of MNU-induced rats; type: in vivo, Wistar rats; set-up: CAT: unit not given here; details: liver; for CAT: catalase activity; for GSH: reduced glutathione; for SOD (U/mg): superoxide dismutase activity; for TP: total protein content
Protocol: as §1, §2, §3, §4
Determination of Antioxidant Markers in Liver Homogenate
Rat liver samples were homogenized in phosphate buffer (5 mM, pH = 7.4) to give a 10% (w/v) liver homogenate and then centrifuged at 4000 rpm for 15 min at 4°C. The supernatant of liver homogenate was used for the estimation of reduced glutathione (GSH) and catalase (CAT) levels by the colorimetric method. The contents of malondialdehyde (MDA) in the supernatant of the liver homogenates were determined using 1,1,3,3-tetraethoxypropane as standard. Total protein concentrations were determined according to the method of Lowry using bovine serum albumin as […]

[7] = MTT antiproliferative assay (neutral control); details: human
[8] = tested on: MNU-induced breast cancer tissue; assay: Histopathology of breast sections; type: in vivo, Wistar rats
Source text: The impact of selected leads on BC tissue was registered after their administration to experimental animals with MNU-induced BC (Figure 9 and Supplementary Material Figures S211–S218). […] In contrast to this, the administered leads were harmless in both concentrations, neutralizing the MNU-induced changes, judging by the lobuloalveolar units and cuboidal epithelial cells found (Figure 9C,D, and Supplementary Material Figures S214–S218). […]
Histopathological Studies
histopathological changes. […]

MDA-MB-231 cell lines = assay: MTT antiproliferative assay; type: cell-based, human; details: read-out: MDA-MB-231 (IC50 nM)
[9] = Pharmacokinetics study, oral bioavailability; details: rat
MCF-7 cells = assay: Cell cycle distribution by flow cytometry; type: cell-based, human; details: 24 h
[10] = tested on: MNU-induced breast cancer; assay: In vivo anticancer screening, MNU-induced mammary tumorigenesis; set-up: species or system female Wistar rats
[11] = MFD 1000 mg/kg (MNU: MTD 100 mg/kg bwt), 5 days
[12] = dose 50 mg/kg (compounds per os after MNU; MNU alone i.p.)

Chain of ERβ (Q92731 whole entry): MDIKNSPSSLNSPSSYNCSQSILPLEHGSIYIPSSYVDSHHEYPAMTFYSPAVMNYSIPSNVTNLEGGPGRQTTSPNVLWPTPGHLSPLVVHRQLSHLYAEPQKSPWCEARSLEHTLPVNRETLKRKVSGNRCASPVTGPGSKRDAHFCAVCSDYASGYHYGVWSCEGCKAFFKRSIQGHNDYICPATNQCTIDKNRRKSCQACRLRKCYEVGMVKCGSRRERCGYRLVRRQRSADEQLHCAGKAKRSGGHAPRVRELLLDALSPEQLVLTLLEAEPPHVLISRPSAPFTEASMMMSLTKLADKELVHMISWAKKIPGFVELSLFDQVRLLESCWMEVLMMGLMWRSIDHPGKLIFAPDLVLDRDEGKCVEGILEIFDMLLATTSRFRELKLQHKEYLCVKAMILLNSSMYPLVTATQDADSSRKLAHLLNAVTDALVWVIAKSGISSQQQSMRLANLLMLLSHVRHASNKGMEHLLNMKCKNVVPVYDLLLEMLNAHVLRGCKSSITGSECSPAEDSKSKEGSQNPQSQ

CC/C(=C(\c1ccc(O)cc1)c1ccc(OCCN(C)C)cc1)c1ccccc1 [Compound 4-OHT., 4-hydroxytamoxifen, reference compound]
logRBA ERβ (ERβ): 1.39 ^†
fraction unbound at 5 mg/kg bwt [1]: 0.0185
fraction unbound at 50 mg/kg bwt [1]: 0.0252
IC50 (MCF-7 cell lines; growth inhibition, 48 h): 1.19 ± 0.57 nM
IC50 (MCF-7 cell lines; references in Table S17): 1.24 ± 0.32 nM
IC50 [2]: > 100 nM
IC50 [3]: 1.29 ± 0.43 nM
ALP (A/L) ([4]; dose 5 mg/kg): 105.32±0.31 A/L
ALT (A/L) ([4]; dose 5 mg/kg): 52.44±0.31 A/L
AST (U/L) ([4]; dose 5 mg/kg): 53.76±0.32 U/L
γ-GT (U/L) ([4]; dose 5 mg/kg): 16.54 U/L
ALP (A/L) ([4]; dose 50 mg/kg): 131.43±0.43 A/L
ALT (A/L) ([4]; dose 50 mg/kg): 59.63±0.32 A/L
AST (U/L) ([4]; dose 50 mg/kg): 58.41±0.25 U/L
γ-GT (U/L) ([4]; dose 50 mg/kg): 18.47±0.45 U/L
TBC ([4]; dose 5 mg/kg): 23.56
TBC ([4]; dose 50 mg/kg): 25.57
colon section histopathology [11]: no morphological changes
heart section histopathology [11]: no morphological changes
kidney section histopathology [11]: no morphological changes
liver section histopathology [11]: no morphological changes
lung section histopathology [11]: no morphological changes
spleen section histopathology [11]: no morphological changes
WL after MFD (day 1, mg) (average body weight at day 1, dosing at MFD): 305.84 ± 0.59 mg
WL after MFD (day 5, mg) (average body weight at day 5, dosing at MFD): 297.65 ± 0.39 mg
MFD (5 days) (maximum feasible (or tolerated) dose, 5 days per os, 5-1000 mg/kg bwt): 1000 mg/kg
logD at 30 min ([5]; n-octanol/phosphate buffer): 3.64
CAT ([6]; dose 5 mg/kg): 13.56±0.88
CAT ([6]; dose 50 mg/kg): 20.46±0.76
TBARS ([6]; dose 50 mg/kg): 3.63 ± 0.32 nmol/mg
GSH ([6]; dose 5 mg/kg): 4.67 mg/g
GSH ([6]; dose 50 mg/kg): 3.33 mg/g
SOD (U/mg) ([6]; dose 5 mg/kg): 4.87±0.72 U/mg
SOD (U/mg) ([6]; dose 50 mg/kg): 7.46±0.34 U/mg
TP ([6]; dose 50 mg/kg): 47.46 g/L
IC50 at 48 h ([7]; MRC-5 lung fibroblast cells, MRC-5 (IC50 nM), growth inhibition): > 10 nM
IC50 at 48 h ([7]; MRC-5 lung fibroblast cells, MRC-5 (IC50 nM), references in Table S17): > 100 nM
breast section histopathology ([8]; 5 mg/kg of bwt): necrosis (NEC)
breast section histopathology ([8]; 50 mg/kg of bwt): necrosis (NEC)
IC50 (MDA-MB-231 cell lines; growth inhibition, 48 h): 37.1 ± 0.45 nM
IC50 (MDA-MB-231 cell lines; references in Table S17): 37.04 ± 0.32 nM
BIO ([9]; oral 5 mg/kg): 88 ^‖
BIO ([9]; oral 50 mg/kg): 94
Cell Cycle (%) G0/G1 (MCF-7 cells; 0.1 nM): 57.22 ± 0.37 *^,†,§ %
Cell Cycle (%) G2/M (MCF-7 cells; 0.1 nM): 24.02 ± 0.53 *^,,†§ %
Cell Cycle (%) S (MCF-7 cells; 0.1 nM): 18.76 ± 0.41 *^,†,§ %
Cell Cycle (%) G0/G1 (MCF-7 cells; 1 nM): 63.26 ± 0.41 *^,†,§ %
Cell Cycle (%) G2/M (MCF-7 cells; 1 nM): 15.60 ± 0.15 *^,†,§ %
Cell Cycle (%) S (MCF-7 cells; 1 nM): 21.14 ± 0.25 *^,†,§ %
Tumor Burden (week) ([10]; dose 5 mg/kg per os after MNU): 3.36 ± 0.38 *^,†,‖ week
Tumor Latency (week) ([10]; dose 5 mg/kg per os after MNU): 7 * week
Tumor Volume (mm^3) ([10]; dose 5 mg/kg per os after MNU): 1.88 ± 0.35 *^,†,‖ mm^3
Tumor Burden (week) [10, 12]: 3.22 ± 0.21 *^,†,┴ week
Tumor Latency (week) [10, 12]: 10 *^,† week
Tumor Volume (mm^3) [10, 12]: 1.35 ± 0.63 *^,†,┴ mm^3

CC(=O)c1cc(C(=O)O[C@@H]2/C=C/C(=O)O[C@@H](O)CCC/C=C/[C@@H]3C[C@H](O)C[C@H]32)ccc1OCCS(=O)(=O)O [Compound 3DPQ-4, 2-(2-acetyl-4-((((1R,2E,6R,10E,11aS,13S,14aR)-6,13-dihydroxy-4-oxo-4,6,7,8,9,11a,12,13,14,14a-decahydro-1H-cyclopenta[f][1]oxacyclotridecin-1-yl)oxy)carbonyl)phenoxy)ethanesulfonic acid]
Ki (ERβ; calculated antagonistic (inhibitory) constant, read-out: Ka ERβ): 46.3 nM
IC50 (ERβ; concentration that antagonizes 50% of ERβ signaling activity, read-out: ERβ (IC50 nM)): 82.45 ± 0.54 nM
logRBA ERβ (ERβ): 0.03 ^†,‡,§
fraction unbound at 5 mg/kg bwt [1]: 0.0123
fraction unbound at 50 mg/kg bwt [1]: 0.0151
IC50 (MCF-7 cell lines; Homo sapiens, MCF7, growth inhibition, 48 h): 0.64 ± 0.15 nM
IC50 [2]: > 100 nM
IC50 [3]: 0.92 ± 0.43 nM
ALP (A/L) ([4]; dose 5 mg/kg): 99.41±0.15 A/L
ALT (A/L) ([4]; dose 5 mg/kg): 55.87±0.62 A/L
AST (U/L) ([4]; dose 5 mg/kg): 57.53±0.43 U/L
γ-GT (U/L) ([4]; dose 5 mg/kg): 11.54±0.53 U/L
ALP (A/L) ([4]; dose 50 mg/kg): 104.52±0.31 A/L
ALT (A/L) ([4]; dose 50 mg/kg): 59.74±0.1 A/L
AST (U/L) ([4]; dose 50 mg/kg): 59.46±0.63 U/L
γ-GT (U/L) ([4]; dose 50 mg/kg): 13.46±0.55 U/L
TBC ([4]; dose 5 mg/kg): 19.31
TBC ([4]; dose 50 mg/kg): 22.74
WL after MFD (day 1, mg) (rat, in vivo): 320.73 ± 0.36 mg
logD at 30 min [5]: 1.88
CAT ([6]; dose 5 mg/kg): 16.34±0.73
CAT ([6]; dose 50 mg/kg): 16.43±0.66
TBARS ([6]; dose 5 mg/kg): 0.65 ± 0.21 nmol/mg
TBARS ([6]; dose 50 mg/kg): 0.65 ± 0.34 nmol/mg
GSH ([6]; dose 5 mg/kg): 9.87 mg/g
GSH ([6]; dose 50 mg/kg): 10.36 mg/g
SOD (U/mg) ([6]; dose 5 mg/kg): 8.73±0.38 U/mg
SOD (U/mg) ([6]; dose 50 mg/kg): 10.57±0.73 U/mg
TP ([6]; dose 50 mg/kg): 48.54 g/L
IC50 at 48 h [7]: > 100 nM
breast section histopathology ([8]; 5 mg/kg of bwt): lobuloalveolar unit (LaU) and cuboidal epithelial cells (CE)
breast section histopathology ([8]; 50 mg/kg of bwt): lobuloalveolar unit (LaU) and cuboidal epithelial cells (CE)
IC50 (MDA-MB-231 cell lines; Homo sapiens, MDA-MB-231, growth inhibition, 48 h): 67.31 ± 0.34 nM
BIO ([9]; oral 5 mg/kg): 90
BIO ([9]; oral 50 mg/kg): 93
Cell Cycle (%) G0/G1 (MCF-7 cells; 0.1 nM): 77.78 ± 3.54 *^,†,‡,§ %
Cell Cycle (%) G2/M (MCF-7 cells; 0.1 nM): 15.02 ± 4.23 *^,†,‡,§ %
Cell Cycle (%) S (MCF-7 cells; 0.1 nM): 7.20 ± 2.88 *^,†,‡,§ %
Cell Cycle (%) G0/G1 (MCF-7 cells; 1 nM): 80.24 ± 2.53 *^,†,‡,§ %
Cell Cycle (%) G2/M (MCF-7 cells; 1 nM): 11.86 ± 3.43 *^,†,‡,§ %
Cell Cycle (%) S (MCF-7 cells; 1 nM): 7.91 ± 0.1.54 *^,†,‡,§ %
Tumor Burden (week) ([10]; dose 5 mg/kg per os after MNU): 2.39 ± 0.56 *^,†,‡,‖ week
Tumor Latency (week) ([10]; dose 5 mg/kg per os after MNU): 10 *^,† week
Tumor Volume (mm^3) ([10]; dose 5 mg/kg per os after MNU): 0.98 ± 0.31 *^,†,‡,‖ mm^3
Tumor Burden (week) [10, 12]: 1.33 ± 0.15 *^,†,§,┴ week
Tumor Latency (week) [10, 12]: 14 *^,† week
Tumor Volume (mm^3) [10, 12]: 0.41 ± 0.23 *^,†,§,┴ mm^3
